{"source": "ChEMBL document CHEMBL6096670", "about": "“Design, synthesis and biological evaluation of novel β-carbolines as antitumor agents via targeting autophagy in colorectal cancer” (Eur J Med Chem, 2025)", "key": {"HCT-116 [1]": {"system": "HCT-116", "assay": "Effect on apoptosis pathway related genes expression in human HCT-116 cells at 1 uM incubated for 24 hrs by GSVA enrichment analysis", "format": "functional, cell-based"}, "CT26": {"system": "CT26", "assay": "Antitumor activity against mouse CT26 cells implanted in female BALB/c mouse assessed as reduction in tumor weight at 1 mg/kg administrated once every 3 days for 18 days relative to control", "format": "functional", "parameters": "scale not given: the % may be the effect or the level left", "conditions": "time 18 day"}, "HCT-116 [2]": {"system": "HCT-116", "assay": "Effect on caspase 3 expression level in Bax knockout human HCT-116 cells at 1 to 2 uM incubated for 24 hrs by Western blot analysis", "format": "functional, cell-based", "conditions": "dose 1-2 µM"}, "HCT-116 [3]": {"system": "HCT-116", "assay": "Inhibition of cell migration in human HCT-116 cells at 1 to 2 uM incubated for 24 hrs by cell scratch assay", "format": "functional, cell-based", "conditions": "dose 1-2 µM"}, "HCT-116 [4]": {"system": "HCT-116", "assay": "Induction of apoptosis in human HCT-116 assessed as viable cells at 1 uM pretreated with Z-VAD-FMK for 30 mins followed by compound addition and measured after 24 hrs by Annexin V-FITC/PI double staining based flow cytometry (reference value: 90.8%)", "format": "functional", "conditions": "read-out: Activity"}, "HCT-116 [5]": {"system": "HCT-116", "assay": "Induction of apoptosis in human HCT-116 assessed as early apoptotic cells at 1 uM pretreated with Z-VAD-FMK for 30 mins followed by compound addition and measured after 24 hrs by Annexin V-FITC/PI double staining based flow cytometry (reference value: 0.95%)", "format": "functional"}, "HCT-116 [6]": {"system": "HCT-116", "assay": "Antiproliferative activity against human HCT-116 assessed as inhibition of cell viability at 0.5 to 2 uM by CCK8 method", "format": "functional, cell-based", "conditions": "dose 0.5-2 µM, time <= 7.0 day"}, "HCT-116 [7]": {"system": "HCT-116", "assay": "Antiproliferative activity against ATG5 knockout human HCT-116 cells assessed as inhibition of cell viability incubated for 24 hrs by CCK8 assay", "format": "functional, cell-based", "conditions": "HCT-116, 24 h"}, "HCT-116 [8]": {"system": "HCT-116", "assay": "Induction of autophagy in human HCT-116 cells transfected with mRFP-GFP-LC3B assessed as autophagolysosome formation by measuring RFP fluorescence at 0.5 to 2 uM incubated for 24 hrs by DAPI staining based fluorescence confocal microscopic analysis", "format": "functional, cell-based", "conditions": "dose 0.5-2 µM"}, "HCT-116 [9]": {"system": "HCT-116", "assay": "Induction of autophagy in human HCT-116 cells transfected with mRFP-GFP-LC3B assessed as autophagolysosome formation by measuring increase in mRFP to GFP fluorescence ratio at 0.5 to 2 uM incubated for 24 hrs by DAPI staining based fluorescence confocal microscopic analysis", "format": "functional, cell-based", "conditions": "dose 0.5-2 µM"}, "[10]": {"assay": "Toxicity in female BALB/c mouse implanted with mouse CT26 cells assessed as change in liver morphology at 1 to 2 mg/kg administrated once every 3 days for 18 days by H&E staining based analysis", "format": "organism-based", "conditions": "in vivo, 432 h, dose 1-2 mg/kg, time 18 day"}, "MCF7": {"system": "MCF7", "assay": "Antiproliferative activity against human MCF7 cells assessed as inhibition of cell growth incubated for 48 hrs by MTT assay", "format": "functional, cell-based", "conditions": "MCF7, 48 h"}, "HCT-116 [11]": {"system": "HCT-116", "assay": "Inhibition of cell migration in human HCT-116 cells at 1 to 2 uM incubated for 24 hrs by crystal violet staining based transwell migration assay", "format": "functional", "conditions": "dose 1-2 µM"}, "HCT-116 [12]": {"system": "HCT-116", "assay": "Induction of apoptosis in human HCT-116 assessed as late apoptotic cells at 2 uM pretreated with Z-VAD-FMK for 30 mins followed by compound addition and measured after 24 hrs by Annexin V-FITC/PI double staining based flow cytometry (reference value: 7.43%)", "format": "functional"}, "HCT-116 [13]": {"system": "HCT-116", "assay": "Inhibition of colony formation in ATG5 knockout human HCT-116 cells assessed as reduction in number of colonies at 1 to 4 uM measured after 24 hrs by crystal violet staining based analysis", "format": "functional, cell-based", "conditions": "dose 1-4 µM"}, "HCT-116 [14]": {"system": "HCT-116", "assay": "Induction of apoptosis in human HCT-116 assessed as early apoptotic cells at 2 uM pretreated with Z-VAD-FMK for 30 mins followed by compound addition and measured after 24 hrs by Annexin V-FITC/PI double staining based flow cytometry (reference value: 0.95%)", "format": "functional"}, "HCT-116 [15]": {"system": "HCT-116", "assay": "Antiproliferative activity against human HCT-116 assessed as inhibition of cell viability incubated for 24 hrs by CCK8 method", "format": "functional, cell-based"}, "HCT-116 [16]": {"system": "HCT-116", "assay": "Induction of apoptosis in human HCT-116 cells assessed as effect on cleaved PARP expression level at 0.5 to 2 uM incubated for 24 hrs by Western blot analysis", "format": "functional, cell-based", "conditions": "dose 0.5-2 µM"}, "HCT-116 [17]": {"system": "HCT-116", "assay": "Inhibition of colony formation in human HCT-116 cells assessed as reduction in number of colonies at 0.5 to 2 uM measured after 24 hrs by crystal violet staining based analysis", "format": "functional, cell-based", "conditions": "dose 0.5-2 µM"}, "HCT-116 [18]": {"system": "HCT-116", "assay": "Effect on cleaved caspase 3 expression level in p53 knockout human HCT-116 cells at 1 to 2 uM incubated for 24 hrs by Western blot analysis", "format": "functional, cell-based", "conditions": "dose 1-2 µM"}, "HCT-116 [19]": {"system": "HCT-116", "assay": "Induction of apoptosis in human HCT-116 assessed as necrotic cells at 1 uM incubated for 24 hrs Annexin V FITC/PI double staining based flow cytometry (reference value: 0.94 %)", "format": "functional"}, "HCT-116 [20]": {"system": "HCT-116", "assay": "Induction of apoptosis in human HCT-116 assessed as late apoptotic cells at 1 uM incubated for 24 hrs Annexin V FITC/PI double staining based flow cytometry (reference value: 8.02 %)", "format": "functional"}, "HCT-116 [21]": {"system": "HCT-116", "assay": "Induction of morphological changes in human HCT-116 cells assessed as appearance of inflated cell shape at 0.5 to 2 uM by microscopic analysis", "format": "functional, cell-based", "conditions": "dose 0.5-2 µM"}, "HCT-116 [22]": {"system": "HCT-116", "assay": "Upregulation of autophagy pathway related genes expression in human HCT-116 cells at 1 uM incubated for 24 hrs by GSVA enrichment analysis", "format": "functional, cell-based"}, "HCT-116 [23]": {"system": "HCT-116", "assay": "Induction of autophagy in human HCT-116 cells transfected with mRFP-GFP-LC3B assessed as autophagolysosome formation by measuring decrease in GFP fluorescence at 0.5 to 2 uM incubated for 24 hrs by DAPI staining based fluorescence confocal microscopic analysis", "format": "functional, cell-based", "conditions": "dose 0.5-2 µM"}, "SK-OV-3": {"system": "SK-OV-3", "assay": "Antiproliferative activity against human SK-OV-3 cells assessed as inhibition of cell growth incubated for 48 hrs by MTT assay", "format": "functional, cell-based", "conditions": "SK-OV-3, 48 h"}, "HCT-116 [24]": {"system": "HCT-116", "assay": "Induction of morphological changes in human HCT-116 cells assessed as appearance of rounder cells at 0.5 to 2 uM by microscopic analysis", "format": "functional, cell-based", "conditions": "dose 0.5-2 µM"}, "[25]": {"assay": "Toxicity in female BALB/c mouse implanted with mouse CT26 cells assessed as change in spleen morphology at 1 to 2 mg/kg administrated once every 3 days for 18 days by H&E staining based analysis", "format": "organism-based", "conditions": "in vivo, 432 h, dose 1-2 mg/kg, time 18 day"}, "[26]": {"assay": "Toxicity in female BALB/c mouse implanted with mouse CT26 cells assessed as change in lung morphology at 1 to 2 mg/kg administrated once every 3 days for 18 days by H&E staining based analysis", "format": "organism-based", "conditions": "in vivo, 432 h, dose 1-2 mg/kg, time 18 day"}, "HCT-116 [27]": {"system": "HCT-116", "assay": "Induction of autophagy in human HCT-116 cells transfected with tandem mRFP-GFP-LC3 plasmid assessed as increase in LC3-II accumulation incubated for 24 hrs by Western blot analysis", "format": "functional, cell-based", "conditions": "dose 0.5-20 µM"}, "A-375": {"system": "A-375", "assay": "Antiproliferative activity against human A-375 cells assessed as inhibition of cell growth incubated for 48 hrs by MTT assay", "format": "functional, cell-based", "conditions": "A-375, 48 h"}, "HCT-116 [28]": {"system": "HCT-116", "assay": "Induction of apoptosis in human HCT-116 assessed as viable cells at 2 uM pretreated with Z-VAD-FMK for 30 mins followed by compound addition and measured after 24 hrs by Annexin V-FITC/PI double staining based flow cytometry (reference value: 90.8%)", "format": "functional", "conditions": "read-out: Activity"}, "HCT-116 [29]": {"system": "HCT-116", "assay": "Induction of apoptosis in human HCT-116 assessed as late apoptotic cells at 1 uM pretreated with Z-VAD-FMK for 30 mins followed by compound addition and measured after 24 hrs by Annexin V-FITC/PI double staining based flow cytometry (reference value: 7.43 %)", "format": "functional"}}, "note": "Activity calls are given as the source filed them. The calls are words filed in the database; no cut-off is given here."}
{"smiles": "CCN(CC)CCCNCc1cc2c3ccccc3n(CCCc3ccccc3)c2c(CNCCCN(CC)CC)n1", "values": [{"measurement": "Activity", "setting": "HCT-116 [1]", "result": "inactive"}, {"measurement": "Activity", "setting": "CT26", "result": 56.5, "unit": "%"}, {"measurement": "Activity", "setting": "HCT-116 [2]", "result": "inactive"}, {"measurement": "inhibition", "setting": "HCT-116 [3]", "result": "Active"}, {"measurement": "viability at 1 µM", "setting": "HCT-116 [4]", "result": 83.7, "unit": "%"}, {"measurement": "Activity", "setting": "HCT-116 [5]", "result": 1.75, "unit": "%"}, {"measurement": "Activity", "setting": "HCT-116 [6]", "result": "Time-dependent-effect"}, {"measurement": "IC50", "setting": "HCT-116 [7]", "result": 6.62, "unit": "µM"}, {"measurement": "Activity", "setting": "HCT-116 [8]", "result": "Active; Rfp Fluorescence Remained Unchanged"}, {"measurement": "Activity", "setting": "HCT-116 [9]", "result": "Active"}, {"measurement": "Activity", "setting": "[10]", "result": "Non-toxic"}, {"measurement": "IC50", "setting": "MCF7", "result": 4.46, "unit": "µM"}, {"measurement": "inhibition", "setting": "HCT-116 [11]", "result": "Active"}, {"measurement": "Activity", "setting": "HCT-116 [12]", "result": 13.7, "unit": "%"}, {"measurement": "inhibition", "setting": "HCT-116 [13]", "result": "Active; Insignificant Decrease In Number Of Colonies Observed"}, {"measurement": "Activity", "setting": "HCT-116 [14]", "result": 2.28, "unit": "%"}, {"measurement": "Activity", "setting": "HCT-116 [15]", "result": "Dose-dependent-effect"}, {"measurement": "IC50", "setting": "HCT-116 [15]; HCT-116, 24 h", "result": 2.75, "unit": "µM"}, {"measurement": "Activity", "setting": "HCT-116 [16]", "result": "inactive"}, {"measurement": "inhibition", "setting": "HCT-116 [17]", "result": "Active"}, {"measurement": "Activity", "setting": "HCT-116 [18]", "result": "inactive"}, {"measurement": "Activity", "setting": "HCT-116 [19]", "result": 2.02, "unit": "%"}, {"measurement": "Activity", "setting": "HCT-116 [20]", "result": 11.2, "unit": "%"}, {"measurement": "Activity", "setting": "HCT-116 [21]", "result": "Active"}, {"measurement": "Activity", "setting": "HCT-116 [22]", "result": "Active"}, {"measurement": "Activity", "setting": "HCT-116 [23]", "result": "Active"}, {"measurement": "IC50", "setting": "SK-OV-3", "result": 4.26, "unit": "µM"}, {"measurement": "Activity", "setting": "HCT-116 [24]", "result": "Active"}, {"measurement": "Activity", "setting": "[25]", "result": "Non-toxic"}, {"measurement": "Activity", "setting": "[26]", "result": "Non-toxic"}, {"measurement": "Activity", "setting": "HCT-116 [27]", "result": "Dose-dependent-effect; Transformation Of Lc3-I To Lc3-Ii Observed"}, {"measurement": "IC50", "setting": "A-375", "result": 4.45, "unit": "µM"}, {"measurement": "viability at 2 µM", "setting": "HCT-116 [28]", "result": 82.3, "unit": "%"}, {"measurement": "Activity", "setting": "HCT-116 [29]", "result": 12.4, "unit": "%"}]}
